# US20260124192A1, “COMPOUNDS, COMPOSITIONS, AND METHODS OF TREATING RNA VIRAL INFECTIONS” (priority 2024, published 2026)
# Read-outs that look alike come from different tables or passages of the source.
# Assays:
# Type in all cases: cell-based
# [1] = Cytotoxicity, MTT assay in uninfected A549; settings: human, uninfected A549 cells, with Influenza A IF assay, not converted
# [2] = system: SARS-CoV-2 Delta (B.1.617.2); test: SARS-CoV-2 CPE assay, Vero 76 (Method 2); settings: Severe acute respiratory syndrome coronavirus 2, 2% FBS
# [3] = system: SARS-CoV-2 Omicron (B.1.1.529); test: SARS-CoV-2 IF assay, HeLa-ACE2 (Method 1); settings: Severe acute respiratory syndrome coronavirus 2, HeLa-ACE2, SARS-CoV-2 Omicron (B.1.1.529), 2% FBS
# [4] = Cytotoxicity, neutral red dye-uptake, HG23; settings: human, HG23 cells, with Norwalk Virus CPE assay, not converted
# Protocol: (§1) Compounds were tested in an assay medium containing 2% fetal bovine serum (FBS). Test compounds were added to cells prior to infection with virus at a multiplicity of infection (MOI) sufficient to induce visible cytopathic effect (CPE). […] Additionally, the EC90 was defined as the concentration required to achieve a 1 log10 reduction in viral titer. Dose-response curves depicting viral CPE (red line) and compound cytotoxicity (purple line) were generated to support these analyses.
# Norwalk Virus = test: Norwalk virus CPE assay, HG23 (Method 6); settings: Norovirus Norwalk Virus, 2% FBS, @ 5 μM
# Protocol: as §1
# [5] = system: MCF7 wild-type cell lines; test: MCF7 growth inhibition assay (Cell Titre Glo 2.0); settings: Homo sapiens, MCF7, 120 h, read-out: MCF-7 IC50 (μM)
# Protocol: The growth inhibition properties of inhibitors on MCF7 wild-type cell lines were evaluated using the Cell Titre Glo 2.0 cell viability reagent. The assay utilized 384-well black clear bottom plates with 20 μl of MCF7 wild-type cell suspension mixed with reference/test compounds and 20 μl of Cell Titre Glo 2.0 reagent. Cells were seeded at a density of 1000 cells/well in DMEM High Glucose culture media+10% Fetal Bovine Serum (FBS). Staurosporine and Camptothecin served as positive controls for confirming cytotoxicity at a concentration of 30 μM, and vehicle control of 1% DMSO was used to standardize conditions across all test points. The assay and culture media both contained 1% DMSO. Assays were conducted in duplicate for each concentration of the test compounds. The incubation period for the assay was set at 120 hours, after which growth inhibition was assessed. Using a multi-mode reader, the assay readout was based on luminescence measured in Relative Light Units (RLUs). The viability luminescence signal was monitored continually from the same wells over an extended period, allowing for detailed analysis of cell viability. Measurements were taken using an integration time ranging from 0.25 to 1 second across plates designated for various time points.
# Cells were maintained and seeded in 384 […] plates, maintaining 1000 cells/well. Seeded plates were incubated at 37° C., 5% CO2 for 16-18 hours to ensure optimal cell adherence and growth. Post-incubation, reference, and test compounds were added carefully to the wells for further processing. Plates were incubated again at 37° C., 5% CO2 for 120 hours (5 days) to allow compound effects. This was followed by the addition of CTG reagent as per the kit's instruction protocol for 30 minutes and RLU data to be recorded. Post plate read data to be analyzed using GraphPad Prism for software IC50 value generation.
# Next, the NCEs were tested for selective estrogen regulation modulation activity by using a growth inhibition assay. The assay is performed on MCF7 cells, which are derived from a hormone-dependent breast cancer that stops growing upon estrogen receptor inhibition. […] Staurosporine and Camptothecin served as positive controls for cytotoxicity and 1% DMSO as the vehicle control.
# SARS-CoV-2 USA-WA1/2020 = test: SARS-CoV-2 CPE assay, Vero E6 (Method 2); settings: Severe acute respiratory syndrome coronavirus 2, Vero C1008, 2% FBS
# [6] = system: SARS-CoV-2 Beta (B.1.351); test: SARS-CoV-2 IF assay, HeLa-ACE2 (Method 1); settings: 2% FBS
# [7] = system: Influenza B Yamagata/Brisbane; test: Influenza B CPE assay, MDCK; settings: Influenza B virus, albumin content N/A
# Source text: (§2) The antiviral assays were cell line based and consisted in transfecting each of the viruses tested in a compatible cell line. Upon infection and after drug treatment, viral survival and cell toxicity were reported from the readout of three different assays: cytopathic effect (CPE), viral yield reduction (VYR), or immunofluorescence (IF).
# [8] = system: Influenza B Victoria/Florida; test: Influenza B CPE assay, MDCK; settings: Influenza B virus, albumin content N/A
# Source text: as §2
# [9] = XTT cell viability assay, Huh-luc/neo-ET; settings: human, Huh-luc/neo-ET cells, with HCV replicon assay, not converted, read-out: CC50
# Protocol: (§3) Twenty-four hours after seeding the cells, the cell culture supernatant was removed from each well and replaced with 175 μL fresh complete medium minus G418. Test compounds were evaluated at a high-test concentration of 10 μM and five serial half-logarithmic dilutions in three biological replicates. In three biological replicates, Sofosbuvir was evaluated in parallel at a high-test concentration of 1 μM and five serial half-logarithmic dilutions. Compounds were first serially diluted in DMSO to 400× of each final in-well concentration. An intermediate 8× solution was prepared in a complete medium and then added to the cells in a volume of 25 μL per well. A complete medium containing an equal percentage of DMSO (v/v) was added to vehicle-treated control cells. The final DMSO concentration was 0.25% (v/v) for all samples. The cells were incubated for an additional 72 hours at 37° C./5% CO2, then HCV replication was measured by luciferase activity and cell viability was assessed in parallel using an XTT colorimetric assay.
# (§4) Huh-luc/neo-ET cell viability was measured at 72 hours after treatment using the tetrazolium dye XTT (2,3-bis(2-methoxy-4-nitro-5-sulfophenyI)-5[(phenylamino)carbonyl]-2H-tetrazolium hydroxide). Mitochondrial enzymes of metabolically active cells metabolize XTT-tetrazolium to a soluble formazan product. XTT solution was prepared fresh at 1 mg/mL in DMEM. Phenazine methosulfate (PMS) solution was prepared at 0.15 mg/mL in PBS and stored in the dark at −20° C. An XTT/PMS stock was prepared immediately before use by adding 40 μL of PMS per ml of XTT solution. Fifty microliters (50 μL) XTT/PMS were added per well, and the cells were incubated for 4 hours at 37° C. The cell culture plates were then sealed with adhesive plate sealers and shaken gently or inverted several times to mix the soluble formazan product. The formazan product was measured spectrophotometrically by absorbance at 450/650 nm on a Vmax plate reader (Molecular Devices). The raw data in Softmax Pro 5.4.2 software was imported into Microsoft Excel for further analysis. Data are presented as absorbance values (450/650 nm) or the percentage of viable cells relative to vehicle-treated control (mean+1—standard deviation, n=3 biological replicates from one independent experiment).
# Huh-luc/neo-ET cells = test: XTT cell viability assay, Huh-luc/neo-ET; settings: XTT, 72 hours, read-out: HCV 1b - TC50
# Protocol: as §3, §4
smiles,measurement,setting,value
Cc1c(-c2ccc(O)cc2)n(Cc2ccc(OCCN3CCCCC3)cc2)c2ccc(O)cc12 [Pipendoxifene],CC50 at 24 h,[1],13.7 µM
same,EC50,[2],2400 nM
same,EC50,[3],750 nM
same,CC50,[4],18 µM
same,percent effect printed in column EC50 (μM),Norwalk Virus,31% @
same,IC50,[5],0.00064 µM
same,EC50,SARS-CoV-2 USA-WA1/2020,520 nM
same,EC50,[6]; SARS-CoV-2 Beta (B.1.351),668 nM
same,EC50,"[6]; Severe acute respiratory syndrome coronavirus 2, HeLa-ACE2, SARS-CoV-2 Beta (B.1.351)",1050 nM
same,EC50,[7]; read-out: Corrected EC50,6.7 µM
same,EC50,[7]; read-out: EC50,6.7 µM
same,EC50,[8]; read-out: Corrected EC50,4.1 µM
same,EC50,[8]; read-out: EC50,4.1 µM
same,CC50 at 72 h,[9],> 10 µM
same,CC50,Huh-luc/neo-ET cells,> 10 µM
